From patent publication US9932637B2, “Genetic polymorphisms associated with cardiovascular disorders and drug response, methods of detection and uses thereof” (CELERA CORPORATION, priority 2003, dated 2018)

Assays:
[1] = system: animal models and myocyte cultures; details: compared to other hydrophobic statins; cited from earlier work
[2] = system: patients with prior myocardial infarction (CARE study); test: CARE trial: pravastatin vs placebo, recurrent MI (RMI), overall and by ABCA1/NPC1/HSPG2 genotype pattern; type: in vivo, human
Text: In order to identify genetic markers associated with acute coronary events (e.g. MI, stroke, unstable angina, congestive heart failure, etc.) or response to statin treatment for the prevention of coronary events, samples from the Cholesterol and Recurrent Events (CARE) study (a randomized multicentral double-blinded trial on secondary prevention of acute coronary events with pravastatin) (Sacks et al., 1991, Am. J. Cardiol. 68: 1436-1446) were genotyped. A well-documented myocardial infarction (MI) was one of the enrollment criteria for entry into the CARE study. Patients were enrolled in the CARE trial from 80 participating study centers. […] Patients were randomized to receive either 40 mg of pravastatin once daily or a matching placebo. The primary endpoint of the trial was death from coronary heart disease and the median duration of follow-up was 5.0 years (range, 4.0 to 6.2 years). […] Secondary endpoints of other related cardiovascular or metabolic disease events, and changes in clinical variables were also recorded in pravastatin-treated and placebo groups. All individuals included in the study had signed a written informed consent form and the study protocol was approved by the respective Institutional Review Boards (IRBs).
For genotyping SNPs in CARE patient samples, DNA was extracted from blood samples using conventional DNA extraction methods such as the QIA-amp kit from Qiagen. Genotypes were obtained on an ABI PRISM® 7900HT Sequence Detection PCR system (Applied Biosystems, Foster City, Calif.) by kinetic allele-specific PCR, similar to the method described by Germer et al. (Germer S., Holland M. J., Higuchi R. 2000, Genome Res. 10: 258-266).
The genotype data generated from the DNA of patients who participated in the CARE study was analyzed to determine the effect that pravastatin treatment had on the occurrence of RMI in patients with each of the potential genotypes (low risk, protective or high risk, non-protective) for the ABCA1 gene, the NPC1 gene and the […] gene independently.
The effect of pravastatin treatment on the occurrence of RMI in patients with each of the potential genotypes (protective, low risk genotype or non-protective, high risk genotype) for each of the ABCA1 gene, NPC1 gene, and HSPG2 gene alone, and combinations with the other two genes thereof are presented in Table 17.
This is a 50% reduction in risk over a 5 year period for RMI. […] This is an 80% reduction in risk over a 5 year period for RMI.

[3] = Pattern 0, pravastatin vs placebo
[4] = Pattern 2, pravastatin vs placebo
[5] = Pattern 3, pravastatin vs placebo

CC[C@H](C)C(=O)O[C@H]1C[C@H](O)C=C2C=C[C@H](C)[C@H](CC[C@@H](O)C[C@@H](O)CC(=O)O)[C@H]21 [pravastatin]
myopathic potential [1]: low myopathic potential | No RMI (number of patients) ([2]; All, pravastatin arm): 1367 | RMI (number of patients) ([2]; All, pravastatin arm): 106 | Risk (of RMI) ([2]; All, pravastatin arm): 0.072 | RDStatin ([2]; All, pravastatin vs placebo): 0.023 | RRStatin ([2]; All, pravastatin vs placebo): 0.76 | 5 year risk of a RMI ([2]; CARE patients with pattern 0 genotypes receiving pravastatin): 7.9% | 5 year risk of a RMI ([2]; CARE patients with pattern 2 genotypes receiving pravastatin): 6.8% | 5 year risk of a RMI ([2]; CARE patients with pattern 3 genotype receiving pravastatin): 4.6% | reduction in risk for RMI in treatment vs. placebo groups ([2]; CARE, all patients): 25% | 5 year risk of having a recurrent MI (RMI) ([2]; CARE, all patients who received pravastatin 40 mg once daily): 7.2% | Cox Proportional Hazard Ratio (HR age-adjusted) for RMI ([2]; CARE, all patients, pravastatin vs placebo): 0.75 | Age-adjusted pravastatin effect on RMI, RR ([2]; High risk ABCA1 genotype): 0.9567 | Age-adjusted pravastatin effect on RMI, RR ([2]; High risk HSPG2 genotype): 0.8097 | Age-adjusted pravastatin effect on RMI, RR ([2]; High risk NPC1 genotype): 1.0824 | Age-adjusted pravastatin effect on RMI, RR ([2]; High risk, non-protective genotypes (ABCA1, NPC1, HSPG2)): 1.7175 | Age-adjusted pravastatin effect on RMI, RR ([2]; Low risk ABCA1, NPC1 and HSPG2 (pattern 3 genotype)): 0.2399 | Age-adjusted pravastatin effect on RMI, RR ([2]; Low risk ABCA1 and HSPG2 only): 1.0054 | Age-adjusted pravastatin effect on RMI, RR ([2]; Low risk ABCA1 and NPC1 only (pattern 2 genotype)): 0.5258 | Age-adjusted pravastatin effect on RMI, RR ([2]; Low risk ABCA1 genotype): 0.5883 | Age-adjusted pravastatin effect on RMI, RR ([2]; Low risk HSPG2 genotype): 0.3934 | Age-adjusted pravastatin effect on RMI, RR ([2]; Low risk NPC1 and HSPG2 only): 0.2964 | Age-adjusted pravastatin effect on RMI, RR ([2]; Low risk NPC1 genotype): 0.5938 | Age-adjusted pravastatin effect on RMI, RR ([2]; Low risk, protective ABCA1 only): 0.8765 | Age-adjusted pravastatin effect on RMI, RR ([2]; Low risk, protective HSPG2 only): 0.2487 | Age-adjusted pravastatin effect on RMI, RR ([2]; Low risk, protective NPC1 only): 0.8954 | No RMI (number of patients) ([2]; Pattern 0, pravastatin arm): 906 | RMI (number of patients) ([2]; Pattern 0, pravastatin arm): 78 | Risk (of RMI) ([2]; Pattern 0, pravastatin arm): 0.079 | RDStatin [2, 3]: 0.001 | RRStatin [2, 3]: 0.98 | No RMI (number of patients) ([2]; Pattern 2, pravastatin arm): 342 | RMI (number of patients) ([2]; Pattern 2, pravastatin arm): 25 | Risk (of RMI) ([2]; Pattern 2, pravastatin arm): 0.068 | RDStatin [2, 4]: 0.057 | RRStatin [2, 4]: 0.55 | No RMI (number of patients) ([2]; Pattern 3, pravastatin arm): 62 | RMI (number of patients) ([2]; Pattern 3, pravastatin arm): 3 | Risk (of RMI) ([2]; Pattern 3, pravastatin arm): 0.046 | RDStatin [2, 5]: 0.147 | RRStatin [2, 5]: 0.24 | HR for RMI, pravastatin vs no statin ([2]; pattern 2 genotypes): 0.53 | reduction in risk over a 5 year period for RMI ([2]; pattern 2 genotypes): 50% | HR for RMI, pravastatin vs no statin ([2]; pattern 3 genotype): 0.2 | reduction in risk over a 5 year period for RMI ([2]; pattern 3 genotype): 80%
